Patent US9624224B2, “Inhibitors of Bruton's tyrosine kinase” (Pharmacyclics LLC, priority 2013, dated 2017)

How the values were obtained:
Type in all cases: biochemical
EGFR = EGFR (Homo sapiens, UniProt P00533); test: EGFR kinase inhibition (in vitro kinase assay)
Lck = Lck (Homo sapiens, UniProt P06239); test: Lck kinase inhibition (in vitro kinase assay)
Experimental: (§1) Btk kinase activity is determined using a time-resolved fluorescence resonance energy transfer (TR-FRET) methodology. Measurements are performed in a reaction volume of 50 μL using 96-well assay plates. […] The reaction is quenched by the addition of 1.2 equivalents of EDTA (relative to divalent cation) in 25 μL of 1× Lance buffer (Perkin-Elmer). Streptavidin-APC (Perkin-Elmer) and Eu-labeled p-Tyr100 antibody (Perkin-Elmer) in 1× Lance buffer are added in a 25 μL volume to give final concentrations of 100 nM and 2.5 nM, respectively, and the mixture is allowed to incubate for one hour. The TR-FRET signal is measured on a multimode plate reader with an excitation wavelength (λEx) of 330 nm and detection wavelengths (λEm) of 615 and 665 nm. Activity is determined by the ratio of the fluorescence at 665 nm to that at 615 nm. For each compound, enzyme activity is measured at various concentrations of compound. Negative control reactions are performed in the absence of inhibitor in replicates of six, and two no-enzyme controls are used to determine baseline fluorescence levels. Inhibition constants, Ki(app), ware obtained using the program BatchKi (Kuzmic et al. (2000), Anal. Biochem. 286:45-50). IC50s are obtained according to the equation: IC50={Ki(app)/(1+[ATP]/Km^ATP)}+[E]total/2;
(§2) For all kinases, [ATP]=Km^ATP, [Btk]total=0.5 nM and [Lck]total=6 nM.

BTK = molecular target: T1, BTK (Homo sapiens, UniProt Q06187); test: Btk in vitro inhibitory activity (TR-FRET, mobility shift or radiometric filter binding kinase assay); conditions: determined using one of the methods outlined in Example 47a, 47b, and 47c
T1 construct: purified from insect cells as a full-length construct containing a N-terminal 6×-His tag; His6 (N); made in house; host or cells: insect cells (baculovirus, Sf21)
T1 sequence (Q06187 whole entry): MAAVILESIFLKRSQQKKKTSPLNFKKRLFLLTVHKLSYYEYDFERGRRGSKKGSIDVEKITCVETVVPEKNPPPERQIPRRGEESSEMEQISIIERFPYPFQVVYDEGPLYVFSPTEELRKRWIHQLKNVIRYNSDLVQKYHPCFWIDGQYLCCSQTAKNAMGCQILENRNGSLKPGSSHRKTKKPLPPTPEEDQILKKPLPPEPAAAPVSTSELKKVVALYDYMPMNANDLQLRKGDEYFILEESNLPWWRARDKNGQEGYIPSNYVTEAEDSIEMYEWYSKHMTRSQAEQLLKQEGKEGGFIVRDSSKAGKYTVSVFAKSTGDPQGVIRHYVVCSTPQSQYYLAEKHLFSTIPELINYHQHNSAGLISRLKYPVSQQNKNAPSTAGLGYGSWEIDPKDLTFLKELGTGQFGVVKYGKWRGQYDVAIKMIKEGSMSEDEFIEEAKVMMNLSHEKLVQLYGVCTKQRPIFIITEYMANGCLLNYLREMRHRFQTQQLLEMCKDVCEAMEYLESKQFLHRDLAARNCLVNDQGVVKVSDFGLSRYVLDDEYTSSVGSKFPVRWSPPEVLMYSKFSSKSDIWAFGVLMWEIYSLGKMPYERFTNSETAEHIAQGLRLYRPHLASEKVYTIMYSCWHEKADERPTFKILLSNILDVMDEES
Experimental: as §1, §2
Kinase activity is measured in vitro using electrophoretic mobility shift assay. The kinase reactions are assembled in a total volume of 25 μL in 384 well plates. […] The reaction is incubated for one hour and is quenched by the addition of 45 μL of termination buffer (100 mM HEPES, pH7.5, 0.01% Triton X-100, 30 mM EDTA). The terminated reactions are analyzed using 12 channel LabChip® 3000 microfluidic detection instrument (Caliper Life Sciences). The enzymatic phosphorylation of the peptide results in a change in net charge, enabling electrophoretic separation of product from substrate peptide. As substrate and product peptides are separated, two peaks of fluorescence are observed. Change in the relative fluorescence intensity of the substrate and product peaks is the parameter measured, reflecting enzyme activity. In the presence of an inhibitor, the ratio between product and substrate is altered: the signal of the product decreases, while the signal of the substrate increases.
Activity in each sample is determined as the product to sum ratio (PSR): P/(S+P), where P is the peak height of the product peptide and S is the peak height of the substrate peptide. For each compound, enzyme activity is measured at various concentrations (12 concentrations of compound spaced by 3× dilution intervals). Negative control samples (0%-inhibition in the absence of inhibitor) and positive control samples (100%-inhibition, in the presence of 20 mM EDTA) are assembled in replicates of four and are used to calculate %-inhibition values for each inhibitor at each concentration. Percent inhibition (Pinh) is determined using following equation: Pinh=(PSR0%−PSRinh)/(PSR0%−PSR100%)*100,
where PSRmh is the product sum ratio in the presence of inhibitor, PSR0% is the average product sum ration in the absence of inhibitor and PSR100% is the average product sum ratio in 100%-inhibition control samples;
The IC50 values of inhibitors are determined by 4 parameter sigmoidal dose-response model fitting of the inhibition curves (Pinh versus inhibitor concentration) using XLfit 4 software.
Human Btk kinase (Genbank accession # NP_000052) was purified from insect cells as a full-length construct containing a N-terminal 6×-His tag. Btk kinase activity was determined using a radiometric filter binding assay. Measurements are performed in a low μL reaction volume 384-well assay plates. […]

Chain of Lck (P06239 whole entry, species assumed): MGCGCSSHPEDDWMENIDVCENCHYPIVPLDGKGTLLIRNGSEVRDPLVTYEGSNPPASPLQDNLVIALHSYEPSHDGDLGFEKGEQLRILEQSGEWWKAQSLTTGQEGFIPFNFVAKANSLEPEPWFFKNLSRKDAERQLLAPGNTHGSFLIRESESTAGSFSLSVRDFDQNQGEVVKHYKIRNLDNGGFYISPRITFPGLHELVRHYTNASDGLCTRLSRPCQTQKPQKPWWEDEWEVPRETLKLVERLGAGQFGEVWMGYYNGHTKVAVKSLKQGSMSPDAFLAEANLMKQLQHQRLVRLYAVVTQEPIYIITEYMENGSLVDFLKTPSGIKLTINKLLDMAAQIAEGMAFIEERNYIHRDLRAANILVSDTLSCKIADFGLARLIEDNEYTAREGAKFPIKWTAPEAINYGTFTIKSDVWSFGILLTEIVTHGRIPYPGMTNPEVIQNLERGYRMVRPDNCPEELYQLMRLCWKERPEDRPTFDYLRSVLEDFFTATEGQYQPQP
Chain of EGFR (P00533 25-1210, species assumed): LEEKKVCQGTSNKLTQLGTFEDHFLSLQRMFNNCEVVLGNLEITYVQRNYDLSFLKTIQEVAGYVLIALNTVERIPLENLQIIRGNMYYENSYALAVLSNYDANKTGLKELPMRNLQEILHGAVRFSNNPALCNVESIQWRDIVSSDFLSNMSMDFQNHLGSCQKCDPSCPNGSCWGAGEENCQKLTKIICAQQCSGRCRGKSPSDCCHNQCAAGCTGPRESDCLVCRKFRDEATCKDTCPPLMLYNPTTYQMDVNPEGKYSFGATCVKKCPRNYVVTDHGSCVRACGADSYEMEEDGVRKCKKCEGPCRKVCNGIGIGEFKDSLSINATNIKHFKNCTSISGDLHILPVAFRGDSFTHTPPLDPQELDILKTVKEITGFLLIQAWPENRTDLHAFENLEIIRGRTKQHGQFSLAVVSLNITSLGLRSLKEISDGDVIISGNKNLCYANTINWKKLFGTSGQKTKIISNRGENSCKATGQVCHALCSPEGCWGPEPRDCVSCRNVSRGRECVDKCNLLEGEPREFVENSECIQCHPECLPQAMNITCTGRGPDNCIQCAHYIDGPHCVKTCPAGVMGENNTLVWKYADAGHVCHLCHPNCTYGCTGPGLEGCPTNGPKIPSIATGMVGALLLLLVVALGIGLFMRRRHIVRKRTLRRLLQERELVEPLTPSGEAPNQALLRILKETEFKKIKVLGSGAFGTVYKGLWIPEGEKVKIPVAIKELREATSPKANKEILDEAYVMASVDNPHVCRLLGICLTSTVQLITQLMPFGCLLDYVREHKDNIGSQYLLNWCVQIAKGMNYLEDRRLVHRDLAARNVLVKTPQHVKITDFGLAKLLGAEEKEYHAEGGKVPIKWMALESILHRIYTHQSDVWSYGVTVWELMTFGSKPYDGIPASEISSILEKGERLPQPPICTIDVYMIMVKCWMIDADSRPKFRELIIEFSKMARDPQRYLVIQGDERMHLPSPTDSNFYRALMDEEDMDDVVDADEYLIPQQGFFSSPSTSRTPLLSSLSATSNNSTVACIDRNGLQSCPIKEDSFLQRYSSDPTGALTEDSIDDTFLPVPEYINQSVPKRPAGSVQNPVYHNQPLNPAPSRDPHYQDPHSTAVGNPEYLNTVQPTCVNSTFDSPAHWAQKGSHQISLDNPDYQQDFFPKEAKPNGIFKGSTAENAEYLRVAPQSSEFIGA

Row | Compound | IC50 (EGFR) [nM] | IC50 (Lck) [nM] | IC50 (BTK) [nM]
1 | CN(C/C=C/C(=O)N1CCC[C@@H](n2nc(-c3ccc(C(=O)Nc4ccccn4)cc3)c3c(N)ncnc32)C1)C1CC1 [Example 34, (R,E)-4-(4-amino-1-(1-(4-(cyclopropyl(methyl)amino)but-2-enoyl)piperidin-3-yl)-1H-pyrazolo[3,4-d]pyrimidin-3-yl)-N-(pyridin-2-yl)benzamide] |  |  | < 100
2 | CN(C/C=C/C(=O)N1CCC[C@@H](n2nc(-c3ccc(C(=O)Nc4cc(C#N)ccn4)cc3)c3c(N)ncnc32)C1)C1CC1 [Example 38, (R,E)-4-(4-amino-1-(1-(4-(cyclopropyl(methyl)amino)but-2-enoyl)piperidin-3-yl)-1H-pyrazolo[3,4-d]pyrimidin-3-yl)-N-(4-cyanopyridin-2-yl)benzamide] |  |  | < 1
3 | CC(C)c1ccnc(NC(=O)c2ccc(-c3nn([C@@H]4CCCN(C(=O)/C=C/CN(C)C5CC5)C4)c4ncnc(N)c34)cc2)c1 [Example 39, (R,E)-4-(4-amino-1-(1-(4-(cyclopropyl(methyl)amino)but-2-enoyl)piperidin-3-yl)-1H-pyrazolo[3,4-d]pyrimidin-3-yl)-N-(4-isopropylpyridin-2-yl)benzamide] |  |  | < 100
4 | CN(C)C/C=C/C(=O)N1CCC[C@@H](n2nc(-c3ccc(C(=O)Nc4ccccn4)cc3)c3c(N)ncnc32)C1 [Example 40, (R,E)-4-(4-amino-1-(1-(4-(dimethylamino)but-2-enoyl)piperidin-3-yl)-1H-pyrazolo[3,4-d]pyrimidin-3-yl)-N-(pyridin-2-yl)benzamide] |  |  | < 1
5 | Cc1ccnc(NC(=O)c2ccc(-c3nn([C@@H]4CCCN(C(=O)/C=C/CN(C)C)C4)c4ncnc(N)c34)cc2)c1 [Example 41, (R,E)-4-(4-amino-1-(1-(4-(dimethylamino)but-2-enoyl)piperidin-3-yl)-1H-pyrazolo[3,4-d]pyrimidin-3-yl)-N-(4-methylpyridin-2-yl)benzamide] |  |  | < 1
6 | CN(C)C/C=C/C(=O)N1CCC[C@@H](n2nc(-c3ccc(C(=O)Nc4cc(C(F)(F)F)ccn4)cc3)c3c(N)ncnc32)C1 [Example 42, (R,E)-4-(4-amino-1-(1-(4-(dimethylamino)but-2-enoyl)piperidin-3-yl)-1H-pyrazolo[3,4-d]pyrimidin-3-yl)-N-(4-(trifluoromethyl)pyridin-2-yl)benzamide] |  |  | < 1
7 | CCCc1ccnc(NC(=O)c2ccc(-c3nn([C@@H]4CCCN(C(=O)/C=C/CN(C)C)C4)c4ncnc(N)c34)cc2)c1 [Example 43, (R,E)-4-(4-amino-1-(1-(4-(dimethylamino)but-2-enoyl)piperidin-3-yl)-1H-pyrazolo[3,4-d]pyrimidin-3-yl)-N-(4-propylpyridin-2-yl)benzamide] |  |  | < 1
8 | CC(C)c1ccnc(NC(=O)c2ccc(-c3nn([C@@H]4CCCN(C(=O)/C=C/CN(C)C)C4)c4ncnc(N)c34)cc2)c1 [Example 44, (R,E)-4-(4-amino-1-(1-(4-(dimethylamino)but-2-enoyl)piperidin-3-yl)-1H-pyrazolo[3,4-d]pyrimidin-3-yl)-N-(4-isopropylpyridin-2-yl)benzamide] |  |  | < 1
9 | CN(C)C/C=C/C(=O)N1CCC[C@@H](n2nc(-c3ccc(C(=O)Nc4cc(C#N)ccn4)cc3)c3c(N)ncnc32)C1 [Example 45, (R,E)-4-(4-amino-1-(1-(4-(dimethylamino)but-2-enoyl)piperidin-3-yl)-1H-pyrazolo[3,4-d]pyrimidin-3-yl)-N-(4-cyanopyridin-2-yl)benzamide] |  |  | < 1
10 | CN(C/C=C/C(=O)N1CC[C@@H](n2nc(-c3ccc(C(=O)Nc4ccccn4)cc3)c3c(N)ncnc32)C1)C1CC1 [Example 46, (R,E)-4-(4-amino-1-(1-(4-(cyclopropyl(methyl)amino)but-2-enoyl)pyrrolidin-3-yl)-1H-pyrazolo[3,4-d]pyrimidin-3-yl)-N-(pyridin-2-yl)benzamide] |  | 100 to 1000 | 

Next, values leading:

Row | IC50 (EGFR) [nM] | IC50 (Lck) [nM] | IC50 (BTK) [nM] | Compound
11 | 1000 to 10000 | 100 to 1000 | < 1 | Cc1ccnc(NC(=O)c2ccc(-c3nn([C@@H]4CCN(C(=O)/C=C/CN(C)C5CC5)C4)c4ncnc(N)c34)cc2)c1 [Example 1, (R,E)-4-(4-amino-1-(1-(4-(cyclopropyl(methyl)amino)but-2-enoyl)pyrrolidin-3-yl)-1H-pyrazolo[3,4-d]pyrimidin-3-yl)-N-(4-methylpyridin-2-yl)benzamide]
12 | 100 to 1000 | 100 to 1000 | < 1 | CN(C/C=C/C(=O)N1CC[C@@H](n2nc(-c3ccc(C(=O)Nc4cc(C(F)(F)F)ccn4)cc3)c3c(N)ncnc32)C1)C1CC1 [Example 2, (R,E)-4-(4-Amino-1-(1-(4-(cyclopropyl(methyl)amino)but-2-enoyl)pyrrolidin-3-yl)-1H-pyrazolo[3,4-d]pyrimidin-3-yl)-N-(4-(trifluoromethyl)pyridin-2-yl)benzamide]
13 | 100 to 1000 | 100 to 1000 | < 1 | CCCc1ccnc(NC(=O)c2ccc(-c3nn([C@@H]4CCN(C(=O)/C=C/CN(C)C5CC5)C4)c4ncnc(N)c34)cc2)c1 [Example 3, (R,E)-4-(4-amino-1-(1-(4-(cyclopropyl(methyl)amino)but-2-enoyl)pyrrolidin-3-yl)-1H-pyrazolo[3,4-d]pyrimidin-3-yl)-N-(4-propylpyridin-2-yl)benzamide]
14 | 1000 to 10000 | 100 to 1000 | < 1 | CCc1ccnc(NC(=O)c2ccc(-c3nn([C@@H]4CCN(C(=O)/C=C/CN(C)C5CC5)C4)c4ncnc(N)c34)cc2)c1 [Example 4, (R,E)-4-(4-amino-1-(1-(4-(cyclopropyl(methyl)amino)but-2-enoyl)pyrrolidin-3-yl)-1H-pyrazolo[3,4-d]pyrimidin-3-yl)-N-(4-ethylpyridin-2-yl)benzamide]
15 |  |  | < 1 | CCCc1ccnc(NC(=O)c2ccc(-c3nn([C@@H]4CCN(C(=O)/C=C/CN(C)C)C4)c4ncnc(N)c34)cc2)c1 [Example 33, (R,E)-4-(4-amino-1-(1-(4-(dimethylamino)but-2-enoyl)pyrrolidin-3-yl)-1H-pyrazolo[3,4-d]pyrimidin-3-yl)-N-(4-propylpyridin-2-yl)benzamide]
16 |  |  | < 1 | Cc1ccnc(NC(=O)c2ccc(-c3nn([C@@H]4CCCN(C(=O)/C=C/CN(C)C5CC5)C4)c4ncnc(N)c34)cc2)c1 [Example 35, (R,E)-4-(4-amino-1-(1-(4-(cyclopropyl(methyl)amino)but-2-enoyl)piperidin-3-yl)-1H-pyrazolo[3,4-d]pyrimidin-3-yl)-N-(4-methylpyridin-2-yl)benzamide]
17 |  |  | < 1 | CN(C/C=C/C(=O)N1CCC[C@@H](n2nc(-c3ccc(C(=O)Nc4cc(C(F)(F)F)ccn4)cc3)c3c(N)ncnc32)C1)C1CC1 [Example 36, (R,E)-4-(4-amino-1-(1-(4-(cyclopropyl(methyl)amino)but-2-enoyl)piperidin-3-yl)-1H-pyrazolo[3,4-d]pyrimidin-3-yl)-N-(4-(trifluoromethyl)pyridin-2-yl)benzamide]
18 |  |  | < 1 | CCCc1ccnc(NC(=O)c2ccc(-c3nn([C@@H]4CCCN(C(=O)/C=C/CN(C)C5CC5)C4)c4ncnc(N)c34)cc2)c1 [Example 37, (R,E)-4-(4-amino-1-(1-(4-(cyclopropyl(methyl)amino)but-2-enoyl)piperidin-3-yl)-1H-pyrazolo[3,4-d]pyrimidin-3-yl)-N-(4-propylpyridin-2-yl)benzamide]
